{
  "source": "PubChem BioAssay (NCI)",
  "assay_in_all_cases": "inhibition of tumour cell growth, NCI panel, 48 h",
  "key": {"786-0 renal": {"system": "786-0 renal"}, "A498 renal": {"system": "A498 renal"}, "A549 NSCLC": {"system": "A549 NSCLC"}, "ACHN renal": {"system": "ACHN renal"}, "BT-549 breast": {"system": "BT-549 breast"}, "CAKI-1 renal": {"system": "CAKI-1 renal"}, "CCRF-CEM leukemia": {"system": "CCRF-CEM leukemia"}, "COLO 205 colon": {"system": "COLO 205 colon"}, "DU-145 prostate": {"system": "DU-145 prostate"}, "EKVX NSCLC": {"system": "EKVX NSCLC"}, "HCC-2998 colon": {"system": "HCC-2998 colon"}, "HCT-116 colon": {"system": "HCT-116 colon"}, "HCT-15 colon": {"system": "HCT-15 colon"}, "HL-60(TB) leukemia": {"system": "HL-60(TB) leukemia"}, "HOP-62 NSCLC": {"system": "HOP-62 NSCLC"}, "HOP-92 NSCLC": {"system": "HOP-92 NSCLC"}, "HS 578T breast": {"system": "HS 578T breast"}, "HT29 colon": {"system": "HT29 colon"}, "IGROV1 ovarian": {"system": "IGROV1 ovarian"}, "K-562 leukemia": {"system": "K-562 leukemia"}, "KM12 colon": {"system": "KM12 colon"}, "LOX IMVI melanoma": {"system": "LOX IMVI melanoma"}, "M14 melanoma": {"system": "M14 melanoma"}, "MALME-3M melanoma": {"system": "MALME-3M melanoma"}, "MCF7 breast": {"system": "MCF7 breast"}, "MDA-MB-231 breast": {"system": "MDA-MB-231 breast"}, "MDA-MB-435": {"system": "MDA-MB-435"}, "MOLT-4 leukemia": {"system": "MOLT-4 leukemia"}, "NCI-H226 lung": {"system": "NCI-H226 lung"}},
  "note": "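How tested: cells in 96-well plates exposed to compound for 48 hours at five concentrations. Abbreviation: GI50, concentration required for 50% inhibition of growth. Definition used: TGI = concentration required for complete inhibition of growth.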",
  "data": [
    {"smiles": "COc1c(B(O)O)cccc1-c1nc2c(F)cc3[nH]ncc3c2c2c1CCCC2", "values": [
      {"measurement": "GI50", "setting": "786-0 renal", "value": 1.33, "unit": "µM"},
      {"measurement": "TGI", "setting": "786-0 renal", "value": 17.6, "unit": "µM"},
      {"measurement": "GI50", "setting": "A498 renal", "value": 0.172, "unit": "µM"},
      {"measurement": "TGI", "setting": "A498 renal", "value": 3.31, "unit": "µM"},
      {"measurement": "GI50", "setting": "A549 NSCLC", "value": 1.05, "unit": "µM"},
      {"measurement": "TGI", "setting": "A549 NSCLC", "value": "> 55.8", "unit": "µM"},
      {"measurement": "GI50", "setting": "ACHN renal", "value": 0.845, "unit": "µM"},
      {"measurement": "TGI", "setting": "ACHN renal", "value": 42.8, "unit": "µM"},
      {"measurement": "GI50", "setting": "BT-549 breast", "value": 0.116, "unit": "µM"},
      {"measurement": "TGI", "setting": "BT-549 breast", "value": 3.02, "unit": "µM"},
      {"measurement": "GI50", "setting": "CAKI-1 renal", "value": 0.333, "unit": "µM"},
      {"measurement": "TGI", "setting": "CAKI-1 renal", "value": 3.26, "unit": "µM"},
      {"measurement": "GI50", "setting": "CCRF-CEM leukemia", "value": 0.633, "unit": "µM"},
      {"measurement": "TGI", "setting": "CCRF-CEM leukemia", "value": 6.92, "unit": "µM"},
      {"measurement": "GI50", "setting": "COLO 205 colon", "value": 1.61, "unit": "µM"},
      {"measurement": "TGI", "setting": "COLO 205 colon", "value": 6.19, "unit": "µM"},
      {"measurement": "GI50", "setting": "DU-145 prostate", "value": 2.18, "unit": "µM"},
      {"measurement": "TGI", "setting": "DU-145 prostate", "value": 26.9, "unit": "µM"},
      {"measurement": "GI50", "setting": "EKVX NSCLC", "value": 2.61, "unit": "µM"},
      {"measurement": "TGI", "setting": "EKVX NSCLC", "value": 34.3, "unit": "µM"},
      {"measurement": "GI50", "setting": "HCC-2998 colon", "value": 2.22, "unit": "µM"},
      {"measurement": "TGI", "setting": "HCC-2998 colon", "value": 8.91, "unit": "µM"},
      {"measurement": "GI50", "setting": "HCT-116 colon", "value": 0.422, "unit": "µM"},
      {"measurement": "TGI", "setting": "HCT-116 colon", "value": "> 53.6", "unit": "µM"},
      {"measurement": "GI50", "setting": "HCT-15 colon", "value": 2.24, "unit": "µM"},
      {"measurement": "TGI", "setting": "HCT-15 colon", "value": 27.6, "unit": "µM"},
      {"measurement": "GI50", "setting": "HL-60(TB) leukemia", "value": 0.436, "unit": "µM"},
      {"measurement": "TGI", "setting": "HL-60(TB) leukemia", "value": 11.3, "unit": "µM"},
      {"measurement": "GI50", "setting": "HOP-62 NSCLC", "value": 0.133, "unit": "µM"},
      {"measurement": "TGI", "setting": "HOP-62 NSCLC", "value": 27.1, "unit": "µM"},
      {"measurement": "GI50", "setting": "HOP-92 NSCLC", "value": 0.0184, "unit": "µM"},
      {"measurement": "TGI", "setting": "HOP-92 NSCLC", "value": 56.8, "unit": "µM"},
      {"measurement": "GI50", "setting": "HS 578T breast", "value": 0.0716, "unit": "µM"},
      {"measurement": "TGI", "setting": "HS 578T breast", "value": 20.8, "unit": "µM"},
      {"measurement": "GI50", "setting": "HT29 colon", "value": 3.07, "unit": "µM"},
      {"measurement": "TGI", "setting": "HT29 colon", "value": "> 44", "unit": "µM"},
      {"measurement": "GI50", "setting": "IGROV1 ovarian", "value": 1.41, "unit": "µM"},
      {"measurement": "TGI", "setting": "IGROV1 ovarian", "value": 23.5, "unit": "µM"},
      {"measurement": "GI50", "setting": "K-562 leukemia", "value": 2.14, "unit": "µM"},
      {"measurement": "TGI", "setting": "K-562 leukemia", "value": "> 100", "unit": "µM"},
      {"measurement": "GI50", "setting": "KM12 colon", "value": 1.41, "unit": "µM"},
      {"measurement": "TGI", "setting": "KM12 colon", "value": 11.7, "unit": "µM"},
      {"measurement": "GI50", "setting": "LOX IMVI melanoma", "value": 0.865, "unit": "µM"},
      {"measurement": "TGI", "setting": "LOX IMVI melanoma", "value": 5.62, "unit": "µM"},
      {"measurement": "GI50", "setting": "M14 melanoma", "value": 3.8, "unit": "µM"},
      {"measurement": "TGI", "setting": "M14 melanoma", "value": 15.5, "unit": "µM"},
      {"measurement": "GI50", "setting": "MALME-3M melanoma", "value": 3.71, "unit": "µM"},
      {"measurement": "TGI", "setting": "MALME-3M melanoma", "value": 9.11, "unit": "µM"},
      {"measurement": "GI50", "setting": "MCF7 breast", "value": 1.31, "unit": "µM"},
      {"measurement": "TGI", "setting": "MCF7 breast", "value": 13.5, "unit": "µM"},
      {"measurement": "GI50", "setting": "MDA-MB-231 breast", "value": 0.0423, "unit": "µM"},
      {"measurement": "TGI", "setting": "MDA-MB-231 breast", "value": 35.9, "unit": "µM"},
      {"measurement": "GI50", "setting": "MDA-MB-435", "value": 0.287, "unit": "µM"},
      {"measurement": "TGI", "setting": "MDA-MB-435", "value": 2.06, "unit": "µM"},
      {"measurement": "GI50", "setting": "MOLT-4 leukemia", "value": 0.844, "unit": "µM"},
      {"measurement": "TGI", "setting": "MOLT-4 leukemia", "value": "> 100", "unit": "µM"},
      {"measurement": "GI50", "setting": "NCI-H226 lung", "value": 1.44, "unit": "µM"},
      {"measurement": "TGI", "setting": "NCI-H226 lung", "value": 22.7, "unit": "µM"}
    ]}
  ]
}
